Experiment [1] deals with MELK (Homo sapiens, UniProt Q14680). Kind of experiment: Kinase assay: MELK activity, phosphorylation of FITC-labeled histone H3 peptide measured by IMAP fluorescence polarization. In kind it is biochemical. The following applies: read-out: IC50 (μM) (kinase assay). In short, it runs like this: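 A FITC-labelled histone H3 peptide served as substrate, with compounds serially diluted to 1% DMSO final. Reactions were stopped with three volumes of IMAP progressive binding solution. After 0.5 h at room temperature, fluorescence polarization was read.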

Experiment [2] concerns A549 cells. Nature of the experiment: Cell-based assay: anti-proliferative activity, Cell Counting Kit-8, 72 hours (A549). As to conditions: Homo sapiens, A549, 72 h, 72 hours. In short, it runs like this: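 A549 cells seeded in 96-well plates and exposed to candidate inhibitors for 72 hours. Growth measured with Cell Counting Kit-8; IC50 values calculated from the dose response.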

Experiment [3] has as its system HT-1197 cells. Kind of experiment: Cell-based assay: anti-proliferative activity, Cell Counting Kit-8, 72 hours (HT-1197, negative control without MELK expression). The following applies: Homo sapiens, HT1197, 72 h, HT1197 cells (negative control, no MELK expression), 72 hours. The procedure, abridged: (§1)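 T47D, A549 and BT-549 cells, with MELK-negative HT-1197 as control (MELK status checked by western blot), seeded at 2,000–3,000 cells/well. Growth measured by CCK-8 72 hours after inhibitor exposure; IC50 values calculated.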

Experiment [4] has as its system DU4475 cells. Nature of the experiment: Cell-based assay: anti-proliferative activity, Cell Counting Kit-8, 72 hours (DU4475). The following applies: Homo sapiens, DU-4475, 72 h.
Experiment [5] has as its system T47D cells. Kind of experiment: Cell-based assay: anti-proliferative activity, Cell Counting Kit-8, 72 hours (T47D). As to conditions: Homo sapiens, T47D, 72 h. In short, it runs like this: as §1

MELK, sequence (Q14680 whole entry, looked up): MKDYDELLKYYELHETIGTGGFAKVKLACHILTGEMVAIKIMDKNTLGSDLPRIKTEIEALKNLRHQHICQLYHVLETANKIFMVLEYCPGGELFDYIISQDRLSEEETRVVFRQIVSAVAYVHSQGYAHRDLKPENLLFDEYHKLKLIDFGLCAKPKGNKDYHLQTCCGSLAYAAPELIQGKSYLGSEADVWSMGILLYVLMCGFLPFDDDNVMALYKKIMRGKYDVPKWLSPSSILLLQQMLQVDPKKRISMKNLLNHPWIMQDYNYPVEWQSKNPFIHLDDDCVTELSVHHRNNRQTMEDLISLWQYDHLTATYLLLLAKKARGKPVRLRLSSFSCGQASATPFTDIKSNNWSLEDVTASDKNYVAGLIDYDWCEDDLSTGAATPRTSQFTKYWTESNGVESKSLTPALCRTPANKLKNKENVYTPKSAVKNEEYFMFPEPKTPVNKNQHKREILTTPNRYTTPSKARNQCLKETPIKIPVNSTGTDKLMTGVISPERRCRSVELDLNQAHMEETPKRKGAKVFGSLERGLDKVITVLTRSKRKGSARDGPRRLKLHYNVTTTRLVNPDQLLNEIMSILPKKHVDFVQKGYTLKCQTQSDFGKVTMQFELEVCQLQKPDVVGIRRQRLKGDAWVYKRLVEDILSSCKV

As for `O=C(c1cnc2ccc(-c3cc(F)c(O)c(Cl)c3)cc2c1Nc1ccc(NCCO)nc1)C1CC1` [Example 679, (6-(3-chloro-5-fluoro-4-hydroxyphenyl)-4-(6-(2-hydroxyethylamino)pyridin-3-ylamino)quinolin-3-yl)(cyclopropyl)methanone], the IC50 in experiment [1] came out at 0.03 µM; in experiment [2], 1.3 µM; in experiment [3], 3.7 µM; in experiment [4], 0.12 µM; in experiment [5] it was 0.23 µM.
Take `CC(=O)c1cnc2ccc(-c3cc(F)c(O)c(Cl)c3)cc2c1N[C@H]1CC[C@H](CCN(C)C)CC1` [Example 741, 1-(6-(3-chloro-5-fluoro-4-hydroxyphenyl)-4-((trans-4-(2-(dimethylamino)ethyl)cyclohexyl)amino)quinolin-3-yl)ethanone]: the IC50 in experiment [1] came to 0.0048 µM; in experiment [2], 0.085 µM; in experiment [3], 2 µM; in experiment [4], 0.062 µM; in experiment [5], 0.037 µM.
On the same counts, the results for `O=C(c1cnc2ccc(-c3cc(Cl)c(O)c(Cl)c3)cc2c1Nc1ccc(CN2CCCC2)nc1)C1CC1` [Example 658, Cyclopropyl{6-(3,5-dichloro-4-hydroxyphenyl)-4-[6-(pyrrolidin-1-ylmethyl)pyridin-3-ylamino]quinolin-3-yl}methanone] are 0.0078 µM, 0.072 µM, 4.5 µM, 0.07 µM and 0.3 µM.
For the molecule `COc1cc(-c2ccc3ncc(C(=O)C4CC4)c(Nc4ccc(N5CCC[C@H](N)C5)nc4)c3c2)cc(Cl)c1O` [Example 660, (S)-(4-(6-(3-aminopiperidin-1-yl)pyridin-3-ylamino)-6-(3-chloro-4-hydroxy-5-methoxyphenyl)quinolin-3-yl)(cyclopropyl)methanone], the concentration for half-maximal inhibition (IC50) in experiment [1] is 0.0024 µM; in experiment [2] it was 0.22 µM; in experiment [3], 2.9 µM; in experiment [4], 0.046 µM; in experiment [5], 0.1 µM.
On the same counts, the results for `COc1cc(-c2ccc3ncc(C(=O)C(C)C)c(Nc4ccc(CN(C)C)cc4)c3c2)cc(Cl)c1O` [Example 640, 1-(6-(3-chloro-4-hydroxy-5-methoxyphenyl)-4-(4-((dimethylamino)methyl)phenylamino)quinolin-3-yl)-2-methylpropan-1-one] are 0.027 µM, 0.61 µM, 0.82 µM, 0.52 µM and 0.54 µM.
On the same counts, the results for `CC(=O)c1cnc2ccc(-c3cc(Cl)c(O)c(Cl)c3)cc2c1Nc1ccc(CN2CCN(C)CC2)cc1` [Example 654, 1-(6-(3,5-dichloro-4-hydroxyphenyl)-4-(4-((4-methylpiperazin-1-yl)methyl)phenylamino)quinolin-3-yl)ethanone] are 0.0082 µM, 0.19 µM, 8.7 µM, 0.11 µM and 0.091 µM.
On the same counts, the results for `CN(C)CCOc1ccc(Nc2c(C(=O)C3CC3)cnc3ccc(-c4cc(F)c(O)c(Cl)c4)cc23)cn1` [Example 710, (6-(3-Chloro-5-fluoro-4-hydroxyphenyl)-4-(6-(2-(dimethylamino)ethoxy)pyridin-3-ylamino)quinolin-3-yl)(cyclopropyl)methanone] are 0.0069 µM, 0.09 µM, 2 µM, 0.083 µM and 0.15 µM.
Take `COc1cc(-c2ccc3ncc(C(C)=O)c(Nc4ccc(CCN(C)C)cc4)c3c2)cc(Cl)c1O` [Example 743, 1-(6-(3-chloro-4-hydroxy-5-methoxyphenyl)-4-(4-(2-(dimethylamino)ethyl)phenylamino)quinolin-3-yl)ethanone]: the IC50 came out at 0.0042 µM in experiment [1]; 0.53 µM in experiment [2]; 4.8 µM in experiment [3]; 0.36 µM in experiment [4]; 0.66 µM in experiment [5].
Taken in the same sequence, the figures for `COc1cc(-c2ccc3ncc(C(C)=O)c(Nc4ccc(N5CCCC(N)C5)nc4)c3c2)cc(Cl)c1O` (stereo not shown) [Example 688, 1-(4-(6-(3-aminopiperidin-1-yl)pyridin-3-ylamino)-6-(3-chloro-4-hydroxy-5-methoxyphenyl)quinolin-3-yl)ethanone] were 0.0032 µM, 0.23 µM, 1.7 µM, 0.11 µM and 0.056 µM.
Taken in the same sequence, the figures for `CCC(=O)c1cnc2ccc(-c3cc(F)c(O)c(Cl)c3)cc2c1N[C@H]1CC[C@H](CN(C)C)CC1` [Example 714, 1-(6-(3-chloro-5-fluoro-4-hydroxyphenyl)-4-((trans-4-((dimethylamino)methyl)cyclohexyl)amino)quinolin-3-yl)propan-1-one] were 0.004 µM, 0.11 µM, 0.55 µM, 0.067 µM and 0.054 µM.
On the same counts, the results for `COc1cc(-c2ccc3ncc(C(=O)C4CC4)c(N[C@H]4CC[C@H](CN5CCC(N(C)C)C5)CC4)c3c2)cc(Cl)c1O` (stereo partly shown) [Example 668] are 0.0039 µM, 0.56 µM, 2.6 µM, 1.4 µM and 1 µM.
Take `CNC[C@H]1CC[C@H](Nc2c(C(=O)C3CC3)cnc3ccc(-c4cc(Cl)c(O)c(Cl)c4)cc23)CC1` [Example 685, cyclopropyl(6-(3,5-dichloro-4-hydroxyphenyl)-4-((trans-4-((methylamino)methyl)cyclohexyl)amino)quinolin-3-yl)methanone]: the IC50 worked out at 0.0016 µM in experiment [1]; 0.14 µM in experiment [2]; 0.73 µM in experiment [3]; 0.018 µM in experiment [4]; 0.054 µM in experiment [5].
Regarding `COc1cc(-c2ccc3ncc(C(=O)C4CC4)c(Nc4ccc(CN5CCC(N(C)C)C5)cc4)c3c2)cc(Cl)c1O` (stereo not shown) [Example 697, (6-(3-chloro-4-hydroxy-5-methoxyphenyl)-4-(4-((3-(dimethylamino)pyrrolidin-1-yl)methyl)phenylamino)quinolin-3-yl)(cyclopropyl)methanone], the IC50 in experiment [1] came out at 0.0084 µM; in experiment [2], 0.44 µM; in experiment [3], 1.8 µM; in experiment [4] it was 0.64 µM; in experiment [5], 0.81 µM.
Take `CC1(N)CCC(Nc2c(C(=O)C3CC3)cnc3ccc(-c4cc(Cl)c(O)c(Cl)c4)cc23)CC1` (stereo not shown) [Example 638, [4-(4-Amino-4-methylcyclohexylamino)-6-(3,5-dichloro-4-hydroxyphenyl)quinolin-3-yl](cyclopropyl)methanone]: the IC50 in experiment [1] amounted to 0.0034 µM; in experiment [2], 0.12 µM; in experiment [3], 0.67 µM; in experiment [4], 0.022 µM; in experiment [5], 0.1 µM.
On the same counts, the results for `CC(=O)c1cnc2ccc(-c3cc(Cl)c(O)c(Cl)c3)cc2c1Nc1cccc(CCN(C)C)c1` [Example 729, 1-{6-(3,5-Dichloro-4-hydroxyphenyl)-4-[3-(2-(dimethylamino)ethyl)phenylamino]quinolin-3-yl}ethanone] are 0.0022 µM, 0.2 µM, 10 µM, 0.1 µM and 0.52 µM.
On the same counts, the results for `N[C@@H]1CCCN(c2ccc(Nc3c(C(=O)C4CC4)cnc4ccc(-c5cc(Cl)c(O)c(Cl)c5)cc34)cn2)C1` [Example 650, (R)-(4-(6-(3-aminopiperidin-1-yl)pyridin-3-ylamino)-6-(3,5-dichloro-4-hydroxyphenyl)quinolin-3-yl)(cyclopropyl)methanone] are 0.001 µM, 0.015 µM, 0.32 µM, 0.0072 µM and 0.0099 µM.
Taken in the same sequence, the figures for `COc1cc(-c2ccc3ncc(C(=O)C4CC4)c(Nc4ccc(N5CCC[C@@H](N)C5)nc4)c3c2)cc(Cl)c1O` [Example 649, (R)-(4-(6-(3-aminopiperidin-1-yl)pyridin-3-ylamino)-6-(3-chloro-4-hydroxy-5-methoxyphenyl)quinolin-3-yl)(cyclopropyl)methanone] were 0.0021 µM, 0.15 µM, 1.4 µM, 0.077 µM and 0.087 µM.
On to `CC(=O)c1cnc2ccc(-c3cc(Cl)c(O)c(Cl)c3)cc2c1N[C@@H]1CC[C@@H](CN2CCN(C)CC2)C1` [Example 728, 1-(6-(3,5-dichloro-4-hydroxyphenyl)-4-((1R,3R)-3-((4-methylpiperazin-1-yl)methyl)cyclopentylamino)quinolin-3-yl)ethanone], for which the IC50 turned out to be 0.0057 µM in experiment [1]; 0.85 µM in experiment [2]; 5.7 µM in experiment [3]; 0.48 µM in experiment [4]; 0.83 µM in experiment [5].
As for `CC(=O)c1cnc2ccc(-c3cc(F)c(O)c(Cl)c3)cc2c1N[C@H]1CC[C@H](CN2CCCC2)CC1` [Example 731], the half-maximal inhibitory concentration (IC50) in experiment [1] was 0.0047 µM; in experiment [2], 0.17 µM; in experiment [3], 1.3 µM; in experiment [4], 0.13 µM; in experiment [5], 0.11 µM.
On to `CC(C)C(=O)c1cnc2ccc(-c3cc(F)c(O)c(Cl)c3)cc2c1Nc1ccc(N2CCNCC2)nc1` [Example 674, 1-(6-(3-chloro-5-fluoro-4-hydroxyphenyl)-4-(6-(piperazin-1-yl)pyridin-3-ylamino)quinolin-3-yl)-2-methylpropan-1-one], for which the IC50 is 0.0069 µM in experiment [1]; 0.46 µM in experiment [2]; 2.4 µM in experiment [3]; 0.15 µM in experiment [4]; 0.11 µM in experiment [5].

The values are drawn from patent US9120749B2, “Quinoline derivatives and MELK inhibitors containing the same” (ONCOTHERAPY SCIENCE, INC., priority 2010, dated 2015).
